Experimental findings from the NIST ThermoML archive (doi:10.1021/acs.jced.8b00070) are described below.

Numbers after ± are expanded uncertainties.

A word on the mass density: it is the mass of a sample divided by its volume.

The conditions of this data set: 101.3 kPa, Liquid, Vibrating tube method.

Turning to `O` [water], the mass density is, setting by setting: (323.15 K) 988 ± 0.2 kg/m3; (328.15 K) 985.7 ± 0.2 kg/m3; (333.15 K) 983.2 ± 0.2 kg/m3.
